Entries after “also recorded” stand apart in the source; their conditions may differ.
Legend:
[1] = test system: verruca planae caused by HPV; assay: Clinical treatment of verruca planae patients with methyltestosterone tablets; assay type: in vivo, human; details: for outcome at follow-up visit: 8 weeks later
[2] = test system: condyloma acuminatum caused by HPV; assay: Clinical treatment of condyloma acuminatum patients with methyltestosterone tablets after operation, laser or freezing; assay type: in vivo, human; details: for relapse of lesions: in 6 months
Description: The study protocol using methyltestosterone as a treatment for verruca planae and condyloma acuminatum caused by HPV includes:
Some of the patients were the relapsed ones after the treatment by transferor, interferon, and interleukins.
Methyltestosterone is a tablet, manufactured by Southwest Pharmaceutical Company and the Second Pharmaceutical Company of Chengdu, China. The dosage was 5 mg/tablet.
Methyltestosterone was administered orally, 1 tablet/time, three times/day, and 5 days consecutively, followed by 1 tablet/time, two times/day, for additional 5-10 days consecutively.
One of the following would be considered as cure: A) there were no new vegetations at or around the lesion for at least six months after administration of methyltestosterone for 10-15 days following treatment with physical, chemical, and operational therapies. B) the vegetations reappeared in two months after operations and were positive for the acetowhitening test, but regressed for at least 6 months after administration of methyltestosterone for 10-15 days.

[3] = of 96 cases with facial verruca planae
[4] = out of 7 cases with hand and neck verruca planae

With `CC12CCC(=O)C=C1CCC1C2CCC2(C)C1CCC2(C)O` (stereo not drawn) [methyltestosterone] the time to cure ([1]; Case 1: facial verruca planae 2 years, 1 tablet twice daily for 3 days) was 2 weeks, the “time until all lesions regressed” value ([1]; Case 2: facial verruca planae 1 year, 1 tablet twice daily for 3 days) was 4 weeks and the “time until all lesions regressed” value ([1]; Case 3: facial verruca planae 4 years, 1 tablet twice daily for 3 days) was 4 weeks. The lesions regressed ([1]; Case 4: facial verruca planae 13 years, 1 tablet twice daily for 5 days, in 6 weeks) was 90%, the “time until lesions on the face regressed” value ([1]; Case 5: hand and neck verruca planae 10 years, 1 tablet twice daily for 10 days) was 2 months and the time to cure ([1]; Case 6: facial verruca planae 3 months, 1 tablet once daily for 5 days plus Vitamin B2, Vitamin B6 and brimstone lotion) was 4 weeks. For the same compound, the “outcome at follow-up visit” value ([1]; Case 7: facial verruca planae, 1 tablet twice daily for 5 days) was “cured”, the “outcome at follow-up visit” value ([1]; Case 8: facial verruca planae one year, 1 tablet once daily for 5 days) was “cured” and the outcome of lesions ([1]; Case 9: facial verruca planae relapsed after laser, 1 tablet three times daily for 5 days) was “regressed mostly”. The “time until papules regressed completely” value ([1]; Case 10: flat papules on forehead and blepharons, 1 tablet three times daily for 4 days) was 3 weeks, the non-responsive rate ([1]; facial verruca planae, 96 cases) was 2% and the cure rate ([1]; facial verruca planae, 96 cases, 5 mg tablet hypoglossally, two or three times/day, 3-5 days, cure = all facial exanthems regressed) was 88.5%. For the same compound, the effective rate ([1]; facial verruca planae, 96 cases, effective = 70% of exanthems disappeared) was 9.4%, the effective rate ([1]; hand and neck verruca planae, 7 cases) was 86% and the cases cured [1, 3] was 85 cases. The cases effective [1, 3] was 9 cases, the “cases non-responsive to the medication” value [1, 3] was 2 cases and the cases cured [1, 4] was 1 cases. For the same compound, the “cases regressed after 5 weeks following the treatment” value [1, 4] was 3 cases, the cases remaining non-responsive [1, 4] was 1 cases and the “relapse of condyloma acuminatum” value ([2]; 61 patients, methyltestosterone 10-15 days following operations, follow-up 6 months to 1 year) was “None of the patients relapsed; also recorded: no relapse case; also recorded: no relapses occurred”. For the same compound, the relapse of lesions ([2]; Case 11: penis, laser, then 1 tablet three times daily 5 days and twice daily 5 days) was “did not relapse”, the relapse of lesions ([2]; Case 12: anus, CO2 laser, then 1 tablet three times daily 5 days and twice daily 10 days) was “did not relapse” and the new vegetations ([2]; Case 13: vulva and anus, CO2 laser, then 1 tablet three times daily 5 days and twice daily 5 days, in 4 weeks) was “no new vegetations appearing”. For the same compound, the relapse ([2]; Case 14: anus, CO2 laser, then 1 tablet twice daily for 10 days, in a year) was “No relapse occurred”, the “outcome of wound and vegetations” value ([2]; Case 15: prepuce, CO2 laser, then 1 tablet three times daily for 10 days, wound healed in 4 weeks) was “no scars left nor new vegetations growing” and the “time until wound healed with negative acetowhitening test” value ([2]; Case 16: after the methyltestosterone treatment) was 6 weeks. The relapse ([2]; Case 16: relapsed after freezing and interferon, CO2 laser, then 1 tablet three times daily 5 days and twice daily 10 days, in one year) was “no relapse occurred”, the “evaluation by Chinese Ministry of Health and WHO criteria for condyloma acuminatum” value ([2]; all condyloma acuminatum cases) was “all cases are considered as cure” and the “outcome of the two cases relapsed after operation and cytokine (interleukin II) treatment” value ([2]; two relapsed cases, then methyltestosterone treatment) was “cured; also recorded: healed the lesions”.
